Experiment: xn = mol fraction of the nth substance listed
Details: 101 kPa

OCCO + CC[n+]1ccn(C)c1.F[B-](F)(F)F
x2 = 0
Details | viscosity [mPa·s]
303.15 K | 13.8
313.15 K | 9.62
323.15 K | 6.92

CC[n+]1ccn(C)c1.F[B-](F)(F)F + OCCO
viscosity [mPa·s]
Details | x1 = 0.0993 | x1 = 0.2001 | x1 = 0.3023 | x1 = 0.4011 | x1 = 0.5003 | x1 = 0.598 | x1 = 0.7003 | x1 = 0.7997 | x1 = 0.8997 | x1 = 1
303.15 K | 10.5 | 9.63 | 9.5 | – | 10.6 | 11.9 | 14 | 16.9 | 21.4 | 28
313.15 K | 7.54 | 6.96 | 6.97 | – | 7.91 | 8.98 | 10.5 | 12.7 | 15.9 | 20.4
323.15 K | 5.57 | 5.22 | 5.3 | 5.63 | 6.21 | 7.05 | 8.29 | 9.9 | 12.3 | 15.3
333.15 K | – | – | 4.2 | 4.51 | 5.02 | 5.7 | 6.7 | 8.07 | 9.7 | 12.1
